Patent US20020166134A1, “Cardiomyocytes with enhanced proliferative potenial, and methods for preparing and using same” (priority 1999, published 2002)

Tests used:
cell cycle protein = test: Western blot analysis of cell cycle protein level changes in response to isoproterenol; type: in vivo, mice; set-up: key to Cyclin D2 protein level: higher numbers of the symbol “+” indicate higher levels of protein; the symbol “−” indicates none detected; conditions: 7 days infusion
Description: Western blots were used to analyze protein expression levels in adult MHC-CYCD2 mice and their non-transgenic litter mates. Hearts were homogenized in NP40 buffer (150 mM NaCl, 5 mM EDTA, 50 mM Tris-HCl pH 8.0, 1 μg/ml aprotinin, 1 μg/ml pepstatin, 1 μg/ml leupeptin, 50 μg/ml TLCK, 50 μg/ml PMSF, 100 μg/ml TPCK, 1% vol/vol Nonidet P-40). The homogenate was cleared by centrifugation at 40,000× g for 10 min, and the protein content of the supernatant was quantitated using a commercial assay (Bio-Rad, Richmond Calif.). Samples were separated by size on 10% polyacrylamide gels under denaturing conditions as described, and electro-blotted to nitrocellulose (Hoefer Scientific, San Francisco Calif.) membranes. The filters were stained with 0.1% naphthol blue-black in 45% methanol, 10% acetic acid to assess the efficiency of transfer. For Western analysis, nonspecific binding was blocked by incubation in block buffer (5% nonfat dry milk, 3% BSA, 0.1% Tween, 1×PBS) for 2 hr at room temperature. Commercial antibodies were used for each protein analyzed. Conditions (i.e. dilution, length of reaction, secondary antibody, etc) were according to the manufacturer's recommendations. The results are presented in Table 4 below, in which higher numbers of the symbol “+” indicate higher levels of protein, and the symbol “−” indicates none detected.
Myocardial hypertrophy was induced by isoproterenol infusion with Alzet minipumps in adult MHC-CYCD2 mice and their non-transgenic siblings (minipump model 2001, Alzet, Palo Alto Calif.; flow rate of 1 μl/hr, 0.028 g/ml isoproterenol). Hearts were harvested after 7 days of isoproterenol infusion and processed for Western blot analysis using procedures as described in Example 4. Again, higher numbers of the symbol “+” indicate higher levels of protein, and the symbol “−” indicates none detected.

Heart weight/body weight = type: in vivo, mice
Text: A thymidine incorporation assay was used to determine if cardiomyocyte DNA synthesis persisted in adult transgenic MCH-CYCD2 animals. This testing also employed a second transgenic mouse line, designated MHC-nLAC. The MCH-nLAC mice express a nuclear localized β-galactosidase (βGAL) reporter gene exclusively in the cardiomyocytes (Soonpaa, M. H. et al., Science 264:98-101 (1994); Soonpaa, M. H. and L. J. Field, Am. J. Physiol. 272:H220-226 (1997)). Accurate cardiomyocyte tritiated thymidine labeling indices can be readily obtained with the MHC-nLAC animals simply by screening for co-localization of βGAL activity and silver grains in autoradiographs of 5-bromo-4-chloro-3-indolyl-B-D-galactoside (X-GAL) stained heart sections. To monitor the effect of cyclin D2 overexpression on cardiomyocyte DNA synthesis, MHC-CYCD2 mice were crossed with MHC-nLAC mice and animals carrying either the MHC-nLAC transgene alone or both transgenes were identified and sequestered. When the mice reached 11 weeks of age, they received a single injection of tritiated thymidine and were sacrificed four hours later. The hearts were removed, sectioned, stained with X-GAL and processed for autoradiography. […]

[1] = test system: cardiomyocytes from the left atria of MHC-CYCD2 transgenic mice; test: Number of cardiomyocyte nuclei (kariokinesis) in left atrial cultures with isoproterenol; type: cell-based; conditions: isoproterenol 1 μm, 72 hrs, left atria of day 14 MHC-CYCD2 mice, FIG. 5
Description: Left atria from neonatal day 14 MHC-CYCD2 transgenic mice were harvested and digested in PBS (37° C., 60 min) containing 0.17% collagenase (Type I, Worthington Biochemical, Freehold N.J.). Cells were then triturated with a Pasteur pipette and plated at a density of 1×10^5 cells per chamber slide. Cells were cultured in DMEM supplemented with 10% FBS. In some cases, the media also contained isoproterenol (1 μm). After 72 hrs., the slides were fixed in gluteraldehyde-formaldehyde (1:1) and overlaid with 1 mg/ml X-GAL, 5 mM potassium ferricyanide, 5 mM potassium ferrocyanide and 2 mM magnesium chloride in PBS. The number of blue nuclei were counted directly on a microscope.

cardiomyocytes = test: Tritiated thymidine incorporation assay of cardiomyocyte DNA synthesis (labeling index) in adult transgenic mice, with or without isoproterenol infusion; type: in vivo; conditions: for Left Atrium cardiomyocyte labeling index / Right Atrium cardiomyocyte labeling index / Ventricle cardiomyocyte labeling index: isoproterenol infusion 7 days
Text: A thymidine incorporation assay was used to determine if cardiomyocyte DNA synthesis persisted in adult transgenic MCH-CYCD2 animals. This testing also employed a second transgenic mouse line, designated MHC-nLAC. The MCH-nLAC mice express a nuclear localized β-galactosidase (βGAL) reporter gene exclusively in the cardiomyocytes (Soonpaa, M. H. et al., Science 264:98-101 (1994); Soonpaa, M. H. and L. J. Field, Am. J. Physiol. 272:H220-226 (1997)). Accurate cardiomyocyte tritiated thymidine labeling indices can be readily obtained with the MHC-nLAC animals simply by screening for co-localization of βGAL activity and silver grains in autoradiographs of 5-bromo-4-chloro-3-indolyl-B-D-galactoside (X-GAL) stained heart sections. To monitor the effect of cyclin D2 overexpression on cardiomyocyte DNA synthesis, MHC-CYCD2 mice were crossed with MHC-nLAC mice and animals carrying either the MHC-nLAC transgene alone or both transgenes were identified and sequestered. When the mice reached 11 weeks of age, they received a single injection of tritiated thymidine and were sacrificed four hours later. The hearts were removed, sectioned, stained with X-GAL and processed for autoradiography. […] In light of the sustained cardiomyocyte DNA synthesis observed in the adult MHC-CYCD2 mouse hearts, a series of experiments was initiated to ascertain how the transgenic myocardium would respond to cardiac hypertrophy. Osmotic mini-pumps (Model 2001, Alzet, Palo Alto, Calif., flow rate of 1 μl per hour) filled with saline or 0.028 g/ml isoproterenol in saline were implanted through a small longitudinal incision between the scapulae. 8 control mice (MHC-nLAC) and 8 cyclin D2 mice (MHC-nLAC/MHC-CYCD2 double transgenics) were used.
Prior to sacrifice, the experimental and control mice received a bolus injection of tritiated thymidine to permit assessment of cardiomyocyte DNA synthesis. After a 4 hour chase, the animals were sacrificed, and the hearts were harvested, cryoprotected, sectioned, stained with X-GAL and subjected to autoradiography. Once again, cardiomyocyte DNA synthesis was measured by scoring the presence of silver grains over βGAL positive nuclei. […] Isoproterenol treatment had no effect on cardiomyocyte DNA synthesis in the non-cyclin expressing control group.
Pulse chase experiments were employed to determine the fate of the cardiomyocytes synthesizing DNA. Once again, MHC-CYCD2 mice were crossed with MHC-nLAC mice. The MHC-nLAC mice express a nuclear localized β-GAL reporter exclusively in cardiomyocytes. Mice from this cross carrying either the MHC-nLAC transgene alone or both the MHC-nLAC and MHC-CYCD2 transgenes were identified and sequestered. At 11 weeks of age, myocardial hypertrophy was induced by isoproterenol infusion with Alzet minipumps (minipump model 2001, Alzet, Palo Alto Calif.; flow rate of 1 μl/hr, 0.028 g/ml isoproterenol). After 7 days of isoproterenol infusion, the control (MHC-nLAC) and experimental (MHC-nLAC/MHC-CYCD2 double transgenic) mice received a single injection of 3H-thymidine (200 uCi I.P. at 28 Ci/mM, Amersham, Arlington Heights, Ill.), and were sacrificed either 4 hours (pulse, FIG. 3A) or 72 hours (chase, FIG. 3B) later. The hearts were removed, cryoprotected in 30% sucrose, embedded and sectioned at 10 μm using standard histologic techniques. The sections were post-fixed in formaldehyde:glutaraldehyde (1:1) and overlaid with 1 mg/ml X-GAL, 5 mM potassium ferricyanide, 5 mM potassium ferrocyanide and 2 mM magnesium chloride in PBS. The sections were counter-stained with DAPI, and washed three times in PBS. After drying, stained slides were coated with photographic emulsion (Ilford L.4, Polysciences, Warrington Pa.) diluted 1:1 with water, drained, and placed in a light-tight box for four days at 4° C. Slides were then developed in Kodak D-19 (Rochester N.Y.) for four minutes, washed in water, and fixed in 30% sodium thiosulfate for at least four minutes. […]

[2] = Control mice, isoproterenol treated 7 days
[3] = MHC-CYCD2 mice, listed as Isoproterenol

Structure (SMILES): CC(C)NCC(O)c1ccc(O)c(O)c1 (centres unmarked) [isoproterenol]
- CDC2 protein level (cell cycle protein; NonTransgenic (+Iso)): + +
- Cyclin D2 protein level (cell cycle protein; NonTransgenic (+Iso)): +
- PCNA protein level (cell cycle protein; NonTransgenic (+Iso)): + +
- CDC2 protein level (cell cycle protein; Transgenic (+Iso)): + + + +
- Cyclin D2 protein level (cell cycle protein; Transgenic (+Iso)): + + + + +
- PCNA protein level (cell cycle protein; Transgenic (+Iso)): + + + +
- increase in heart weight/body weight (Heart weight/body weight; control mice, isoproterenol vs saline treated animals): 28%
- increase in heart weight/body weight (Heart weight/body weight; cyclin expressing mice, continuous isoproterenol 7 days): 47.6%
- number of cardiomyocyte nuclei in the culture [1]: substantial increase
- Left Atrium cardiomyocyte labeling index (cardiomyocytes; Control (MHC-nLAC) mice): 0%
- Right Atrium cardiomyocyte labeling index (cardiomyocytes; Control (MHC-nLAC) mice): 0%
- Ventricle cardiomyocyte labeling index (cardiomyocytes; Control (MHC-nLAC) mice): 0%
- Left Atrial DNA Synth. (%) Iso(7 days) (cardiomyocytes; [2]): 0.00%
- Ventricular DNA Synth. (%) Iso(7 days) (cardiomyocytes; [2]): 0.00%
- Left Atrium cardiomyocyte labeling index (cardiomyocytes; MHC-CYCD2 mice): 7.28%
- Ventricle cardiomyocyte labeling index (cardiomyocytes; MHC-CYCD2 mice): moderately decreased
- Left Atrium cardiomyocyte labeling index (cardiomyocytes; [3]): 7.28%
- Right Atrium cardiomyocyte labeling index (cardiomyocytes; [3]): 0.29%
- Ventricle cardiomyocyte labeling index (cardiomyocytes; [3]): 0.11%
- effect on cardiomyocyte DNA synthesis (cardiomyocytes; non-cyclin expressing control group, isoproterenol treatment): no effect
